Our source for the EC50 values is US12037344B2, “NLRP3 modulators” (INNATE TUMOR IMMUNITY, INC., priority 2018, dated 2024).

Read-outs that look alike come from different tables or passages of the source. Where only a bound is given, the exact number is not on record here.

For one assay, the target named is T1, TLR8 (Homo sapiens, UniProt Q9NR97).
T1 construct: human HEK-Blue cells co-expressing a TLR7 or TLR8 gene
T1 sequence (Q9NR97 27-1041): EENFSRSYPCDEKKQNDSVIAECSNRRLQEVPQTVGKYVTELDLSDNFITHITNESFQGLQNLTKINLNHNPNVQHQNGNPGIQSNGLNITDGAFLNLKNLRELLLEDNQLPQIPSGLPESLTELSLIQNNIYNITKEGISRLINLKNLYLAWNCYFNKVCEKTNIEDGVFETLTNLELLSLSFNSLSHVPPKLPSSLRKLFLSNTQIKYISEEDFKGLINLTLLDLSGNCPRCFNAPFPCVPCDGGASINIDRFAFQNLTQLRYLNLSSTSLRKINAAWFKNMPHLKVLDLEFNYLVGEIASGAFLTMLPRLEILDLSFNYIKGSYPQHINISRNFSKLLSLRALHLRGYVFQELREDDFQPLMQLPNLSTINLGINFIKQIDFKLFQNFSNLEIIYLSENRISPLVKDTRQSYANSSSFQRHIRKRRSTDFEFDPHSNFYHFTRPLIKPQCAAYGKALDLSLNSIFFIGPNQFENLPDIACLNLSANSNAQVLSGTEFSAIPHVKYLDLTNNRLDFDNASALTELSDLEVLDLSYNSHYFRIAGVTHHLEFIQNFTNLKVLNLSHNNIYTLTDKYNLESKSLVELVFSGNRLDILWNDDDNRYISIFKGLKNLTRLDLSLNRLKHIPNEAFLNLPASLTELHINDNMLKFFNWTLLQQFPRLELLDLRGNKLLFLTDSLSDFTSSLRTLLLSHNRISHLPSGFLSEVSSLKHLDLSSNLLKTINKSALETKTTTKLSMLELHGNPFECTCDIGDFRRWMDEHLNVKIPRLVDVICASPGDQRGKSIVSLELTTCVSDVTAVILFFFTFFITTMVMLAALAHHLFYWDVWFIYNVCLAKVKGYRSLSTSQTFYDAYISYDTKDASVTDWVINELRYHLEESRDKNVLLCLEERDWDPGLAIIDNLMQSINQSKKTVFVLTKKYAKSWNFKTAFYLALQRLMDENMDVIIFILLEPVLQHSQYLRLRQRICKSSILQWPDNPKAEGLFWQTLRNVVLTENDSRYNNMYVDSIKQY
The assay is described as follows: In vitro human TLR8 binding reporter assay (HEK-Blue, NF-kB/AP1-inducible SEAP). In kind it is cell-based. To be noted: read-out: TLR8 Agonist EC50. Here is the method:
(§1) In Vitro Human TLR7 and TLR8 Binding Reporter Assays
(§2) Logarithmically-growing human HEK-Blue cells co-expressing a TLR7 or TLR8 gene and a NF-kB/AP1-inducible SEAP (secreted embryonic alkaline phosphatase; Invivogen, San Diego, CA) reporter gene are added to individual wells of a 384-well plate (15,000 cells per 20 μL per well) and maintained for 24 h at 37° C., 5% CO2. Test compounds or DMSO are distributed to separate wells the next day using acoustic liquid handling technology (100 nL per well) and cells are subsequently incubated for 18 h at 37° C., 5% CO2. Cellular SEAP production is measured using an Envision plate reader instrument thirty minutes after adding freshly-made Quanti-Blue reagent (prepared by following manufacturer instructions; Invivogen, San Diego, CA) to the HEK-Blue TLR Nf-kB-SEAP cell reactions. All EC50 values (half-maximal effective concentration) are determined using proprietary data analysis software. Normalized EC50 value=absolute value determined by setting 100% Ymax using a reference standard RLU (relative light unit) values from cells treated with 50 μM of the reference standard.

A further assay deals with T2, TLR7 (Homo sapiens, UniProt Q9NYK1).
T2 construct: human HEK-Blue cells co-expressing a TLR7 or TLR8 gene
T2 sequence (Q9NYK1 27-1049): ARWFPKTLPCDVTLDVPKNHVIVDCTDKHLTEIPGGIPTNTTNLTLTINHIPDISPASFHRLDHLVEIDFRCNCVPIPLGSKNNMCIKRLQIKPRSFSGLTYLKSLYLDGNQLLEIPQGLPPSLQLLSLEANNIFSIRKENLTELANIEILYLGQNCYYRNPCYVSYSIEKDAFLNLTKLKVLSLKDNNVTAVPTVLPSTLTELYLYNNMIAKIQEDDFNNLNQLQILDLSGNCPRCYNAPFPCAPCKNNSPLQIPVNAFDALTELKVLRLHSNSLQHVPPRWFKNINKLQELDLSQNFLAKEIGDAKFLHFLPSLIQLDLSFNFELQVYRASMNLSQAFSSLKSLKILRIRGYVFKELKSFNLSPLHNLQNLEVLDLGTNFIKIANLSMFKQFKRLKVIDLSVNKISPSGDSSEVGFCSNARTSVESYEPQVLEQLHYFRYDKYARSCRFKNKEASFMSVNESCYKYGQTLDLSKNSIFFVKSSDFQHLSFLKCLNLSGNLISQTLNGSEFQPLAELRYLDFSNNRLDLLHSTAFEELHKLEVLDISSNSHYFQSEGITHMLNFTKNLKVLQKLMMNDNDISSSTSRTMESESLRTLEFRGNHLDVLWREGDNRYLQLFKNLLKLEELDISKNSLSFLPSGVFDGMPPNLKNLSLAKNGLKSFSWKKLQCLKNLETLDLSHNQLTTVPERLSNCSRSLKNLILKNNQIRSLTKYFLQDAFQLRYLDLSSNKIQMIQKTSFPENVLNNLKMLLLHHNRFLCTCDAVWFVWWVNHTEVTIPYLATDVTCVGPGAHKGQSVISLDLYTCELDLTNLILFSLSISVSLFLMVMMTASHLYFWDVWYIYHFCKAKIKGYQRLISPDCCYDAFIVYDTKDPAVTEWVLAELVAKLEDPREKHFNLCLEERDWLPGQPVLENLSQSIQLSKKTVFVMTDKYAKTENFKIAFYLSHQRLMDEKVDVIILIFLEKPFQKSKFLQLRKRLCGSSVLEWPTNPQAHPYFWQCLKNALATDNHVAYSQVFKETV
The assay is described as follows: In vitro human TLR7 binding reporter assay (HEK-Blue, NF-kB/AP1-inducible SEAP). In kind it is cell-based. To be noted: read-out: TLR7 Agonist EC50. As to the method: as §1, §2
Background: Reporter assays use an easily measured gene product as a stand-in for the process of interest.

The subject of another assay is THP-1 cells. The assay can be described thus: Measurement of IL-1β production, hTRF protocol (second alternative procedure), THP-1 cells. It is filed as cell-based, human. To be noted: Homo sapiens, THP-1, IL-1β production, read-out: NLRP3 hILIB EC50. As to the method:
Measurement of IL-1β Production—hTRF Protocol (Second Alternative Procedure)
Serial dilutions of compounds in DMSO were added to low volume 384 well plates at 100 nl/well using an ECHO 550 acoustic dispenser (Labcyte) to achieve final starting concentration of 10 μM in assay.
THP-1 cells in RPMI (Gibco, 11875) media with 10% FBS at a density of 1×10^6 cell/ml in a T175 flask were treated with a final concentration of phorbol 12-myristate 13-acetate (PMA) (Sigma, P1585) of 50 ng/ml overnight at 37° C. at 5% CO2 for differentiation. Cells were harvested the next day after rinsing well with dPBS using 0.5% trypsin. A cell solution was prepared of 1×10^6 cells/ml for 50,000 cells in 50 μl/well in RPMI media with 2% FBS. Cells were plated using a multichannel pipette onto the compound dilutions in Greiner, 384 well, black clear bottom tissue culture treated plates (781090). The plates were incubated in 37° C. incubator at 5% CO2 for 2 hours.
After the 2 hour incubation, the cell plates were spun in the centrifuge for 5 minutes at 1200 rpm. Using the Felix (CyBio), 8 μl of the supernatant was transferred to 384 well, low volume, white proxy plates. (Perkin Elmer, 6008230). A human IL1beta hTRF kit was used to analyze the supernatant (CISBIO, 62HIL1BPEG). The kit instructions were followed for preparing the IL1Beta standard curve and then the antibodies from the kit were diluted 1:40 rather than 1:20 as kit instructed. Once combined, the antibodies were added across the plates, 5 μl/well. The plates were sealed and incubated at 4° C. overnight. The plates were then read on the Perkin Elmer EnVision at 665/615 nm using the hTRF laser.

Broadly, the EC50 is the concentration needed to bring the measured effect to its halfway point. In the case of `Nc1nc2cc(-c3cc[nH]n3)ccc2c2[nH]c(CN[C@H]3CCOC3)cc12` [Example 421], the EC50 on TLR8 (activity range) is above 100 µM; at TLR7 (activity range), above 100 µM; in the assay with THP-1 cells (human cells) it was 0.46 µM.

Turning to `CN(CCO)C(=O)Cn1cc2c(n1)c(N)nc1cc(-c3cc[nH]n3)ccc12` [Example 547], the half-maximal effective concentration (EC50) on TLR8 (activity range) is above 100 µM; at TLR7 (activity range), above 100 µM; in the assay with THP-1 cells (human cells), 5.3 µM.

As for `CC(Cn1cc2c(N)nc3cc(-c4cc[nH]n4)ccc3c2n1)C(=O)N1CC(O)C1` (centres unmarked) [Example 613], the values for the concentration giving a half-maximal response (EC50) at TLR8 (activity range), at TLR7 (activity range) and in the assay with THP-1 cells (human cells) were above 100 µM, above 100 µM and 23.4 µM, respectively.

Regarding `CC(CCO)n1cc2c(N)nc3cc(-c4cc[nH]n4)ccc3c2n1` (single isomer, unassigned) [Example 287, 3-(4-amino-7-(1H-pyrazol-3-yl)-2H-pyrazolo[4,3-c]quinolin-2-yl)butan-1-ol], the results for the EC50 on TLR8 (activity range class), at TLR7 (activity range class) and in the assay on THP-1 cells (human) were above 100 µM, above 100 µM and 0.26 µM, respectively.

Consider `Nc1nc2cc(-c3cc[nH]n3)ccc2c2cn(CCNC(=O)[C@H]3CCCO3)nc12` [Example 177], for which the concentration for a half-maximal effect (EC50) on TLR8 (activity range class) is above 100 µM; at TLR7 (activity range class) it was above 100 µM; in the assay on THP-1 cells (human), 2.23 µM.

Consider `Cc1nc(C(=O)NCCc2cc3c(N)nc4cc(-c5cc[nH]n5)ccc4c3[nH]2)co1` [Example 493], for which the concentration for a half-maximal effect (EC50) is above 100 µM at TLR8 (activity range), above 100 µM on TLR7 (activity range) and 0.18 µM with THP-1 cells (human cells).

Take `Nc1nc2cc(-c3cc[nH]n3)ccc2c2cn(CCNC(=O)Nc3ccccc3)nc12` [Example 115, 3-{2-[4-amino-7-(1H-pyrazol-3-yl)-2H-pyrazolo[3,4-c]quinolin-2-yl]ethyl}-1-phenylurea]: the concentration giving a half-maximal response (EC50) at TLR8 (activity range class) was above 100 µM; at TLR7 (activity range class), above 100 µM; in the assay with THP-1 cells (human), 7.76 µM.

For `Nc1nc2cc(-c3cc[nH]n3)ccc2c2cn(CCNC(=O)c3ccon3)nc12` [Example 69], the figures for the EC50 at TLR8 (activity range class), at TLR7 (activity range class) and in the assay with THP-1 cells (human) were above 100 µM, above 100 µM and 0.7 µM, respectively.

`Nc1nc2cc(-c3cc[nH]n3)ccc2c2cn(CCNC(=O)c3ncc(F)cc3F)nc12` [Example 66]: the EC50 on TLR8 (activity range class) is above 100 µM; at TLR7 (activity range class) it was above 100 µM; in the assay with THP-1 cells (human), 0.8 µM.

Consider `COC1CN(C(=O)Cn2cc3c(n2)c(N)nc2cc(-c4cc[nH]n4)ccc23)C1` [Example 546], for which the EC50 on TLR8 (activity range) is above 100 µM; on TLR7 (activity range), above 100 µM; in the assay on THP-1 cells (human cells), 3.27 µM.

In the case of `Nc1nc2cc(-c3cc[nH]n3)ccc2c2nn(Cc3cn[nH]c3)cc12` [Example 358], the EC50 on TLR8 (activity range class) was above 100 µM; on TLR7 (activity range class), above 100 µM; with THP-1 cells (human), 0.18 µM.

With `Nc1nc2cc(-c3ccn[nH]3)ccc2c2cn(CCF)nc12` [Example 193], the 50% effective concentration (EC50) at TLR8 (activity range class) was 20 to 100 µM; at TLR7 (activity range class), 20 to 100 µM; with THP-1 cells (human), 0.24 µM.

For the compound `CC(O)Cn1ncc2c(N)nc3cc(-c4cc[nH]n4)ccc3c21` (centres unmarked) [Example 428], the half-maximal effective concentration (EC50) was above 100 µM on TLR8 (activity range), above 100 µM on TLR7 (activity range) and 1.81 µM with THP-1 cells (human cells).

Consider `CCOCCn1cc2c(N)nc3cc(-c4cc[nH]n4)ccc3c2n1` [Example 222], for which the EC50 is above 100 µM at TLR8 (activity range class), above 100 µM on TLR7 (activity range class) and 0.27 µM in the assay on THP-1 cells (human).

Take `CC(=O)NCc1cc2c(N)nc3cc(-c4ccn[nH]4)ccc3c2[nH]1` [Example 443]: the EC50 is above 100 µM on TLR8 (activity range), above 100 µM at TLR7 (activity range) and 0.23 µM with THP-1 cells (human cells).

Consider `Nc1nc2cc(-c3cc[nH]n3)ccc2c2nn(CCC(=O)N3CCOCC3)cc12` [Example 501], for which the concentration for a half-maximal effect (EC50) is above 100 µM on TLR8 (activity range), above 100 µM at TLR7 (activity range) and 0.73 µM in the assay on THP-1 cells (human cells).

Consider `Nc1nc2cc(-n3cccn3)ccc2c2nn(CC(F)F)cc12` [Example 390], for which the concentration for a half-maximal effect (EC50) was above 100 µM on TLR8 (activity range class), above 100 µM at TLR7 (activity range class) and 0.35 µM in the assay on THP-1 cells (human).

Take `Nc1nc2cc(-n3cccn3)ccc2c2cn(CCNC(=O)c3ccc(F)cn3)nc12` [Example 184]: the EC50 at TLR7 (activity range class) was above 100 µM; in the assay on THP-1 cells (human), 0.1 µM.

Regarding `NCCc1cc2c(N)nc3cc(-c4ccn[nH]4)ccc3c2[nH]1` [Example 152, 2-(2-aminoethyl)-7-(1H-pyrazol-5-yl)-1H-pyrrolo[3,2-c]quinolin-4-amine], the concentration for a half-maximal effect (EC50) in the assay with THP-1 cells (human) came to 3.79 µM.

Regarding `Nc1nc2cc(-c3cc[nH]n3)ccc2c2cc(CCCO)oc12` [Example 148, 3-[4-amino-7-(1H-pyrazol-3-yl)furo[2,3-c]quinolin-2-yl]propan-1-ol], the EC50 in the assay with THP-1 cells (human) amounted to 2.03 µM.

On to `Nc1nc2cc(-c3ccn[nH]3)ccc2c2oc(CCCOCc3ccccc3)nc12` [Example 146, 2-[3-(benzyloxy)propyl]-7-(1H-pyrazol-3-yl)-[1,3]oxazolo[4,5-c]quinolin-4-amine], for which the EC50 in the assay with THP-1 cells (human) was 7.94 µM.
